Results: PubChem BioAssay AID180 (DTP/NCI, 2004)
Where “and” joins values, the source holds several entries; their conditions need not be identical. Equal entries are not always repeated.

System: BDF1 mice, Adenocarcinoma 755 s.c., tumor weight T/C
Assay: NCI In Vivo Anticancer Drug Screen. Data for tumor model Adenocarcinoma 755 (subcutaneous) in B6D2F1 (BDF1) mice
Conditions: endpoint: mean tumor weight, higher = larger tumour
How it was run: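 Tumor-bearing mice receive test compound while controls get vehicle alone. Antitumor effect is scored from survival or tumor dimensions as a T/C quotient.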

[1] = dose: 20.0 mg/kg/injection, schedule: Q01DX011 (ip), vehicle: methylcellulose (MC)

Q: How did the T/C (dose: 0.03 mg/kg/injection, schedule: Q01DX011 (ip), vehicle: carboxymethylcellulose (CMC)) turn out when `C1CN1c1nc(N2CC2)nc(N2CC2)n1` was run?
A: 90 % of control

Q: What about the T/C (dose: 0.05 mg/kg/injection, schedule: Q01DX011 (ip), vehicle: carboxymethylcellulose (CMC)) of the same compound?
A: 80 % of control

Q: What about the T/C (dose: 0.1 mg/kg/injection, schedule: Q01DX011 (ip), vehicle: carboxymethylcellulose (CMC)) of the same compound?
A: 36 % of control

Q: What about the T/C (dose: 0.1 mg/kg/injection, schedule: Q02DX011 (ip), vehicle: carboxymethylcellulose (CMC)) of the same compound?
A: 65 % of control

Q: What about the T/C (dose: 0.2 mg/kg/injection, schedule: Q02DX011 (ip), vehicle: carboxymethylcellulose (CMC)) of the same compound?
A: 49 % of control

Q: What about the T/C (dose: 0.5 mg/kg/injection, schedule: Q01DX011 (ip), vehicle: saline) of the same compound?
A: 8 % of control

Q: And the T/C (dose: 49.0 micrograms/kg/injection, schedule: Q01DX011 (ip), vehicle: carboxymethylcellulose (CMC))?
A: 86 % of control

Q: What about the T/C (dose: 67.0 micrograms/kg/injection, schedule: Q01DX011 (ip), vehicle: carboxymethylcellulose (CMC)) of the same compound?
A: 213 % of control

Q: What about the T/C (dose: 98.0 micrograms/kg/injection, schedule: Q01DX011 (ip), vehicle: carboxymethylcellulose (CMC)) of the same compound?
A: 88 % of control

Q: What about the T/C (dose: 134.0 micrograms/kg/injection, schedule: Q01DX011 (ip), vehicle: carboxymethylcellulose (CMC)) of the same compound?
A: 101 % of control

Q: What about the T/C (dose: 150.0 micrograms/kg/injection, schedule: Q01DX011 (ip), vehicle: saline) of the same compound?
A: 63 % of control

Q: What about the T/C (dose: 260.0 micrograms/kg/injection, schedule: Q01DX011 (ip), vehicle: carboxymethylcellulose (CMC)) of the same compound?
A: 57 % of control and 77 % of control

Q: What about the T/C (dose: 268.0 micrograms/kg/injection, schedule: Q01DX011 (ip), vehicle: carboxymethylcellulose (CMC)) of the same compound?
A: 82 % of control

Q: What about the T/C (dose: 300.0 micrograms/kg/injection, schedule: Q01DX011 (ip), vehicle: saline) of the same compound?
A: 33 % of control

Q: And the T/C (dose: 536.0 micrograms/kg/injection, schedule: Q01DX011 (ip), vehicle: carboxymethylcellulose (CMC))?
A: 18 % of control

Q: What about the T/C (dose: 600.0 micrograms/kg/injection, schedule: Q01DX011 (ip), vehicle: saline) of the same compound?
A: 7 % of control

Q: How did the T/C (dose: 50.0 mg/kg/injection, schedule: Q01DX011 (ip), vehicle: other) turn out when `N#CCCn1cnc2c(Cl)ncnc21` was run?
A: 85 % of control

Q: And the T/C (dose: 100.0 mg/kg/injection, schedule: Q01DX011 (ip), vehicle: other)?
A: 157 % of control

Q: What about the T/C (dose: 400.0 mg/kg/injection, schedule: Q01DX011 (ip), vehicle: other) of the same compound?
A: 98 % of control

Q: And the T/C (dose: 600.0 mg/kg/injection, schedule: Q01DX011 (ip), vehicle: other)?
A: 63 % of control

Q: What about the T/C (dose: 800.0 mg/kg/injection, schedule: Q01DX011 (ip), vehicle: other) of the same compound?
A: 94 % of control

Q: `O=C1N(Br)C(=O)C(c2ccc(Cl)cc2)(c2ccc(Cl)cc2)N1Br` was tested. Which T/C (dose: 1.7 mg/kg/injection, schedule: Q01DX011 (ip), vehicle: carboxymethylcellulose (CMC)) did it give?
A: 42 % of control

Q: And the T/C (dose: 3.5 mg/kg/injection, schedule: Q01DX011 (ip), vehicle: carboxymethylcellulose (CMC))?
A: 76 % of control

Q: And the T/C (dose: 7.0 mg/kg/injection, schedule: Q01DX011 (ip), vehicle: carboxymethylcellulose (CMC))?
A: 91 % of control

Q: What about the T/C (dose: 14.0 mg/kg/injection, schedule: Q01DX011 (ip), vehicle: carboxymethylcellulose (CMC)) of the same compound?
A: 35 % of control and 39 % of control and 43 % of control

Q: And the T/C (dose: 28.0 mg/kg/injection, schedule: Q01DX011 (ip), vehicle: carboxymethylcellulose (CMC))?
A: 35 % of control and 49 % of control

Q: And the T/C (dose: 30.0 mg/kg/injection, schedule: Q01DX011 (ip), vehicle: carboxymethylcellulose (CMC))?
A: 22 % of control and 38 % of control

Q: And the T/C (dose: 56.0 mg/kg/injection, schedule: Q01DX011 (ip), vehicle: carboxymethylcellulose (CMC))?
A: 20 % of control

Q: What about the T/C (dose: 60.0 mg/kg/injection, schedule: Q01DX011 (ip), vehicle: carboxymethylcellulose (CMC)) of the same compound?
A: 29 % of control and 35 % of control

Q: What about the T/C (dose: 112.0 mg/kg/injection, schedule: Q01DX011 (ip), vehicle: carboxymethylcellulose (CMC)) of the same compound?
A: 38 % of control

Q: And the T/C (dose: 120.0 mg/kg/injection, schedule: Q01DX011 (ip), vehicle: carboxymethylcellulose (CMC))?
A: 14 % of control

Q: For `Cc1cc(=O)c2c(C)cccc2[nH]1`, which T/C (dose: 10.0 mg/kg/injection, schedule: Q01DX011 (ip), vehicle: carboxymethylcellulose (CMC)) is on record?
A: 112 % of control

Q: And the T/C (dose: 10.0 mg/kg/injection, schedule: Q01DX011 (ip), vehicle: methylcellulose (MC))?
A: 60 % of control

Q: And the T/C (dose: 20.0 mg/kg/injection, schedule: Q01DX011 (ip), vehicle: carboxymethylcellulose (CMC))?
A: 105 % of control

Q: And the T/C [1]?
A: 59 % of control

Q: And the T/C (dose: 40.0 mg/kg/injection, schedule: Q01DX011 (ip), vehicle: carboxymethylcellulose (CMC))?
A: 86 % of control

Q: And the T/C (dose: 40.0 mg/kg/injection, schedule: Q01DX011 (ip), vehicle: methylcellulose (MC))?
A: 72 % of control

Q: What about the T/C (dose: 80.0 mg/kg/injection, schedule: Q01DX011 (ip), vehicle: carboxymethylcellulose (CMC)) of the same compound?
A: 58 % of control and 60 % of control and 75 % of control

Q: What about the T/C (dose: 80.0 mg/kg/injection, schedule: Q01DX011 (ip), vehicle: methylcellulose (MC)) of the same compound?
A: 57 % of control

Q: What about the T/C (dose: 160.0 mg/kg/injection, schedule: Q01DX011 (ip), vehicle: carboxymethylcellulose (CMC)) of the same compound?
A: 106 % of control

Q: What about the T/C (dose: 320.0 mg/kg/injection, schedule: Q01DX011 (ip), vehicle: carboxymethylcellulose (CMC)) of the same compound?
A: 106 % of control

Q: How did the T/C (dose: 18.75 mg/kg/injection, schedule: Q01DX011 (ip), vehicle: carboxymethylcellulose (CMC)) turn out when `O=C(Nc1ccc(NC(=O)Nc2cccc(C3=NCCN3)c2)cc1)Nc1cccc(C2=NCCN2)c1` was run?
A: 85 % of control

Q: And the T/C (dose: 37.5 mg/kg/injection, schedule: Q01DX011 (ip), vehicle: carboxymethylcellulose (CMC))?
A: 73 % of control

Q: What about the T/C (dose: 75.0 mg/kg/injection, schedule: Q01DX011 (ip), vehicle: carboxymethylcellulose (CMC)) of the same compound?
A: 73 % of control

Q: And the T/C (dose: 150.0 mg/kg/injection, schedule: Q01DX011 (ip), vehicle: carboxymethylcellulose (CMC))?
A: 112 % of control

Q: Which T/C (dose: 8.0 mg/kg/injection, schedule: Q01DX011 (ip), vehicle: carboxymethylcellulose (CMC)) does the source give for `CCOC(=O)c1ccc(N=NN(C)C)cc1` here?
A: 92 % of control

Q: What about the T/C (dose: 16.0 mg/kg/injection, schedule: Q01DX011 (ip), vehicle: carboxymethylcellulose (CMC)) of the same compound?
A: 94 % of control

Q: And the T/C (dose: 31.0 mg/kg/injection, schedule: Q01DX011 (ip), vehicle: carboxymethylcellulose (CMC))?
A: 113 % of control

Q: And the T/C (dose: 62.0 mg/kg/injection, schedule: Q01DX011 (ip), vehicle: carboxymethylcellulose (CMC))?
A: 95 % of control

Q: Which T/C (dose: 1.8 mg/kg/injection, schedule: Q01DX011 (ip), vehicle: methylcellulose (MC)) does the source give for `Nc1nc(SCc2ccccc2)c2ncn(C3CCCO3)c2n1` (centres undefined) here?
A: 68 % of control

Q: And the T/C (dose: 3.7 mg/kg/injection, schedule: Q01DX011 (ip), vehicle: methylcellulose (MC))?
A: 45 % of control

Q: What about the T/C (dose: 7.5 mg/kg/injection, schedule: Q01DX011 (ip), vehicle: methylcellulose (MC)) of the same compound?
A: 2 % of control and 5 % of control

Q: And the T/C [1]?
A: 2 % of control

Q: Which T/C (dose: 1.5 mg/kg/injection, schedule: Q01DX011 (ip), vehicle: methylcellulose (MC)) does the source give for `Nc1nc(SCc2cccnc2)c2ncn(C3OC(CO)C(O)C3O)c2n1` (centres undefined) here?
A: 92 % of control

Q: What about the T/C (dose: 3.1 mg/kg/injection, schedule: Q01DX011 (ip), vehicle: methylcellulose (MC)) of the same compound?
A: 87 % of control

Q: What about the T/C (dose: 6.2 mg/kg/injection, schedule: Q01DX011 (ip), vehicle: methylcellulose (MC)) of the same compound?
A: 12 % of control and 15 % of control

Q: Which results are given for `Nc1nc(SCC(=O)c2ccccc2)c2ncn(C3OC(CO)C(O)C3O)c2n1` (centres undefined)?
A: T/C (dose: 37.5 mg/kg/injection, schedule: Q01DX011 (ip), vehicle: methylcellulose (MC)): 15 % of control; T/C (dose: 75.0 mg/kg/injection, schedule: Q01DX011 (ip), vehicle: methylcellulose (MC)): 5 % of control; T/C (dose: 150.0 mg/kg/injection, schedule: Q01DX011 (ip), vehicle: methylcellulose (MC)): 5 % of control
